The results in this text go back to ChEMBL document CHEMBL6182853, “Design, synthesis, and biological evaluation of hypoxic-activation prodrug TH-302 derivatives” (Bioorg Med Chem Lett, 2025).

Assay [1] deals with SK-OV-3. Nature of the assay: Antiproliferative activity against human SK-OV-3 cells assessed as suppression ratio at 5 uM by enzyme-linked immunosorbent assay relative to control. It is filed as functional.
Assay [2] relates to SK-OV-3. Nature of the assay: Antiproliferative activity against human SK-OV-3 cells assessed as suppression ratio at 50 uM by enzyme-linked immunosorbent assay relative to control. It is filed as functional.
Assay [3] deals with U-87 MG. Briefly: Antiproliferative activity against human U-87 MG cells assessed as suppression ratio at 5 uM by enzyme-linked immunosorbent assay relative to control. It is filed as functional, U-87MG ATCC.
Assay [4] relates to U-87 MG. Nature of the assay: Antiproliferative activity against human U-87 MG cells assessed as suppression ratio at 50 uM by enzyme-linked immunosorbent assay relative to control. The assay is classed as functional, U-87MG ATCC.
Assay [5] deals with SK-OV-3. Nature of the assay: Anti-tumor activity against human SK-OV-3 cells by CCK-8 assay. It is filed as functional, cell-based. On the technique in general: Tetrazolium assays rely on reduction of a dye to a coloured formazan, in cell work by metabolically active cells.
The subject of assay [6] is U-87 MG. Briefly: Anti-tumor activity against human U87 MG cells by CCK-8 assay. The assay is classed as functional, cell-based, U-87MG ATCC.
Assay [7] has as its system SK-OV-3. Nature of the assay: Anti-tumor activity against human SK-OV-3 cells assessed as inhibition rate at 140 uM by CCK-8 assay relative to control. The assay is classed as functional.
For assay [8], the system named is U-87 MG. Briefly: Anti-tumor activity against human U87 MG cells assessed as inhibition rate at 140 uM by CCK-8 assay relative to control. It is filed as functional, U-87MG ATCC.

For `CCn1c(COP(=O)(NCCBr)NCCBr)cnc1[N+](=O)[O-]`, the inhibition at 5 µM was -13% with SK-OV-3 [1] and 25% in the assay on U-87 MG [3]. Further, the inhibition at 50 µM turned out to be 20% in the assay with SK-OV-3 [2] and 31% in the assay with U-87 MG [4].

For the molecule `CCn1cnc([N+](=O)[O-])c1COP(=O)(NCCCl)NCCCl`, the inhibition at 5 µM in the assay on SK-OV-3 [1] was -16%; in the assay on U-87 MG [3], 1%. Moreover, the inhibition at 50 µM in the assay on SK-OV-3 [2] is -2%; in the assay on U-87 MG [4] it was 11%.

For the molecule `CC(C)n1cc(COP(=O)(NCCBr)NCCBr)nc1[N+](=O)[O-]`, the values for the inhibition at 5 µM in the assay with SK-OV-3 [1] and in the assay with U-87 MG [3] were -16% and 30%, respectively. The inhibition at 50 µM in the assay with SK-OV-3 [2] and with U-87 MG [4] was 68% throughout. The IC50 with SK-OV-3 [5] came to 32 µM; in the assay with U-87 MG [6] it was 41 µM. Besides, the inhibition at 140 µM in the assay on SK-OV-3 [7] and in the assay on U-87 MG [8] was 90% each time.

For the molecule `CC(C)n1cnc([N+](=O)[O-])c1COP(=O)(NCCBr)NCCBr`, the figures for the inhibition at 5 µM with SK-OV-3 [1] and with U-87 MG [3] were 4% and 16%, respectively. Also, the results for the inhibition at 50 µM in the assay on SK-OV-3 [2] and in the assay on U-87 MG [4] were 41% and 47%, respectively.

Regarding `Cn1cnc([N+](=O)[O-])c1COP(=O)(NCCBr)NCCBr`, the inhibition at 5 µM was -4% with SK-OV-3 [1] and 17% in the assay with U-87 MG [3]. For the same molecule, the inhibition at 50 µM in the assay with SK-OV-3 [2] was determined as 66%; in the assay with U-87 MG [4], 55%. In addition, the values for the IC50 with SK-OV-3 [5] and in the assay with U-87 MG [6] were 74 µM and 98 µM, respectively.

For `CCn1cc(COP(=O)(NCCBr)NCCBr)nc1[N+](=O)[O-]`, the results for the inhibition at 5 µM with SK-OV-3 [1] and in the assay on U-87 MG [3] were -3% and 25%, respectively. Further, the inhibition at 50 µM in the assay with SK-OV-3 [2] amounted to 32%; in the assay with U-87 MG [4], 43%.

Turning to `Cn1c(COP(=O)(NCCBr)NCCBr)cnc1[N+](=O)[O-]` [EVOFOSFAMIDE], the inhibition at 5 µM in the assay on SK-OV-3 [1] was found to be 10%; in the assay with U-87 MG [3], 9%. Moreover, the inhibition at 50 µM in the assay with SK-OV-3 [2] came to 65%; with U-87 MG [4] it was 68%. In addition, the 50% inhibitory concentration (IC50) was determined as 62 µM in the assay on SK-OV-3 [5] and 61 µM with U-87 MG [6].

In the case of `CCCn1cc(COP(=O)(NCCBr)NCCBr)nc1[N+](=O)[O-]`, the inhibition at 5 µM was -32% in the assay with SK-OV-3 [1] and 21% in the assay with U-87 MG [3]. Also, the figures for the inhibition at 50 µM in the assay on SK-OV-3 [2] and in the assay on U-87 MG [4] were 20% and 35%, respectively.

Consider `CCCn1c(COP(=O)(NCCBr)NCCBr)cnc1[N+](=O)[O-]`, for which the values for the inhibition at 5 µM with SK-OV-3 [1] and with U-87 MG [3] were -2% and 30%, respectively. The inhibition at 50 µM in the assay with SK-OV-3 [2] was found to be 77%; in the assay on U-87 MG [4] it was 69%. For the same molecule, the concentration for half-maximal inhibition (IC50) came out at 42 µM in the assay with SK-OV-3 [5] and 47 µM in the assay on U-87 MG [6]. The inhibition at 140 µM in the assay with SK-OV-3 [7] and in the assay with U-87 MG [8] was 90% throughout.

Consider `CC(C)n1cnc([N+](=O)[O-])c1COP(=O)(NCCCl)NCCCl`, for which the inhibition at 5 µM was 11% with SK-OV-3 [1] and 12% in the assay on U-87 MG [3]. For the same molecule, the inhibition at 50 µM is 16% with SK-OV-3 [2] and 10% with U-87 MG [4].

`CCCn1cnc([N+](=O)[O-])c1COP(=O)(NCCBr)NCCBr`: the inhibition at 5 µM in the assay with SK-OV-3 [1] was 3%; in the assay on U-87 MG [3], -3%. In addition, the inhibition at 50 µM in the assay with SK-OV-3 [2] was 52%; in the assay on U-87 MG [4], 45%.

As to `CCCn1cnc([N+](=O)[O-])c1COP(=O)(NCCCl)NCCCl`, the inhibition at 5 µM in the assay with SK-OV-3 [1] was -5%; in the assay on U-87 MG [3] it was 5%. Also, the inhibition at 50 µM with SK-OV-3 [2] was determined as 8%; in the assay with U-87 MG [4] it was 15%.

Consider `Cn1cnc([N+](=O)[O-])c1COP(=O)(NCCCl)NCCCl`, for which the inhibition at 5 µM was -38% in the assay with SK-OV-3 [1] and 13% in the assay with U-87 MG [3]. The inhibition at 50 µM came to 4% with SK-OV-3 [2] and 22% with U-87 MG [4].

Regarding `CC(C)n1c(COP(=O)(NCCBr)NCCBr)cnc1[N+](=O)[O-]`, the inhibition at 5 µM in the assay with SK-OV-3 [1] was -15%; with U-87 MG [3] it was 24%. In addition, the inhibition at 50 µM was found to be 10% in the assay with SK-OV-3 [2] and 23% in the assay on U-87 MG [4].

For `Cn1cc(COP(=O)(NCCBr)NCCBr)nc1[N+](=O)[O-]`, the inhibition at 5 µM was -14% with SK-OV-3 [1] and 16% in the assay on U-87 MG [3]. In addition, the inhibition at 50 µM with SK-OV-3 [2] came out at 48%; in the assay on U-87 MG [4], 32%.

In the case of `CCn1cnc([N+](=O)[O-])c1COP(=O)(NCCBr)NCCBr`, the inhibition at 5 µM was -11% in the assay with SK-OV-3 [1] and -3% in the assay with U-87 MG [3]. For the same molecule, the inhibition at 50 µM in the assay with SK-OV-3 [2] amounted to 59%; in the assay with U-87 MG [4], 39%.

A word on the inhibition: it is the drop in the measured response relative to a control, in per cent. The term IC50 denotes the concentration needed to halve the response being measured. High values mean a need for much substance, low ones inhibition by little substance.
